Where a SMILES comes first, the peptide text is derived from it. [ ]: non-standard residue; d: D form. The star is where a group is joined. X1 = Cc1ccc(Nc2ncc3c(n2)N(C)C(=O)N(c2cc(C(=O)*)ccc2C)C3)cn1; Chg = N[C@H](C(=O)O)C1CCCCC1; Pip = O=C(O)[C@@H]1CCCCN1; Aze = O=C(O)[C@@H]1CCN1; Nva = CCC[C@H](N)C(=O)O; Ac3c = NC1(C(=O)O)CC1; Aib = CC(C)(N)C(=O)O
Columns and labels:
[1] = biological target: T1, Lck (Homo sapiens, UniProt P06239); assay: In vitro kinase assay (IC50); assay type: biochemical
T1 construct: purchased Reaction Biology Corp
Description: (§1) Full panel kinase profiling and kinase IC50 measurement were performed by using Reaction Biology Corp. (San Diego, USA).

[2] = biological target: T2, c-Src (Homo sapiens, UniProt P12931); assay: In vitro kinase assay (IC50); assay type: biochemical
T2 construct: purchased Reaction Biology Corp
Description: as §1

T2 sequence (P12931 whole entry): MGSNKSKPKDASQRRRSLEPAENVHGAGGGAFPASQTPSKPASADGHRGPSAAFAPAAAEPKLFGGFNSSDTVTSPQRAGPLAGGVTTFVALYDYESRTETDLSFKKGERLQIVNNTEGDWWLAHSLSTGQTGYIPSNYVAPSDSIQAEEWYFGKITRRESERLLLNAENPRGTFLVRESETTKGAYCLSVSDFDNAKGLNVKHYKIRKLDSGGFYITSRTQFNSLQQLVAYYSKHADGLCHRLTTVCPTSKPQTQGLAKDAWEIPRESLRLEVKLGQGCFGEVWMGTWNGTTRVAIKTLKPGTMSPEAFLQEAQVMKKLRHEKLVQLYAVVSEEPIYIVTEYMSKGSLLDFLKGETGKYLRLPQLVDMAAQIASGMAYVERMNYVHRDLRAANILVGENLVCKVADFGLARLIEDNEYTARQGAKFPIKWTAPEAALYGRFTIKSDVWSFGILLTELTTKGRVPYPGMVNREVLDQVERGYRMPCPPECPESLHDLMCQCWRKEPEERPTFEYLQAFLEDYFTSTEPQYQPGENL
T1 sequence (P06239 whole entry): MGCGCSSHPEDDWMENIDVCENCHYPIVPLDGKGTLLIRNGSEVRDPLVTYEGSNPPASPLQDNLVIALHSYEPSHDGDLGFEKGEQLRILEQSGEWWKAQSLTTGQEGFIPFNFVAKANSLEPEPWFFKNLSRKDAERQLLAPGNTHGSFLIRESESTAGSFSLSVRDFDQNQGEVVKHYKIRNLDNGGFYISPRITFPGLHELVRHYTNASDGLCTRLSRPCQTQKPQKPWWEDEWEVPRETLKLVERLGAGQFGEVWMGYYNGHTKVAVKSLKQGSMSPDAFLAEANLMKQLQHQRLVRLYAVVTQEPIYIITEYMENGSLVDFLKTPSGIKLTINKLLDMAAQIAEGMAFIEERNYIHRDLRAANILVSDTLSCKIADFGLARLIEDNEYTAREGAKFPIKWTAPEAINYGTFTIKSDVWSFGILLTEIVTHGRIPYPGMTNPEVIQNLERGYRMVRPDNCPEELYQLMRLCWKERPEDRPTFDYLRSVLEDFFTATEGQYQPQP

Cc1ccc(Nc2ncc3c(n2)N(C)C(=O)N(c2cc(C(=O)N[C@@H](C(=O)N4CCC[C@@H]4C(=O)NC(C)(C)C(=O)N[C@H](CC(C)C)C(=O)N(C)C)C(C)C)ccc2C)C3)cn1 [7c, (R)-N-(1-(((R)-1-(dimethylamino)-4-methyl-1-oxopentan-2-yl)amino)-2-methyl-1-oxopropan-2-yl)-1-((4-methyl-3-(1-methyl-7-((6-methylpyridin-3-yl)amino)-2-oxo-1,4-dihydropyrimido[4,5-d]pyrimidin-3(2H)-yl)benzoyl)-D-valyl)pyrrolidine-2-carboxamide] (X1-[dV][dP][Aib][dL]-NMe2)
IC50 [1]: 211 nM
decrease of Lck/c-Src selectivity compared to 7a [1]: > 10 fold
IC50 [2]: 735 nM

Cc1ccc(Nc2ncc3c(n2)N(C)C(=O)N(c2cc(C(=O)N[C@H](C(=O)N4CCC[C@H]4C(=O)NCC(=O)N[C@@H](CC(C)C)C(=O)N(C)C)C(C)C)ccc2C)C3)cn1 [7g, (S)-N-(2-(((S)-1-(dimethylamino)-4-methyl-1-oxopentan-2-yl)amino)-2-oxoethyl)-1-((4-methyl-3-(1-methyl-7-((6-methylpyridin-3-yl)amino)-2-oxo-1,4-dihydropyrimido[4,5-d]pyrimidin-3(2H)-yl)benzoyl)-L-valyl)pyrrolidine-2-carboxamide] (X1-VPGL-NMe2)
IC50 [1]: 40.2 nM
IC50 [2]: 1370 nM

Cc1ccc(Nc2ncc3c(n2)N(C)C(=O)N(c2cc(C(=O)N[C@H](C(=O)N4CCC[C@@H]4C(=O)NCC(=O)N[C@@H](CC(C)C)C(=O)N(C)C)C(C)C)ccc2C)C3)cn1 [7h, (R)-N-(2-(((S)-1-(dimethylamino)-4-methyl-1-oxopentan-2-yl)amino)-2-oxoethyl)-1-((4-methyl-3-(1-methyl-7-((6-methylpyridin-3-yl)amino)-2-oxo-1,4-dihydropyrimido[4,5-d]pyrimidin-3(2H)-yl)benzoyl)-L-valyl)pyrrolidine-2-carboxamide] (X1-V[dP]GL-NMe2)
IC50 [1]: 64.4 nM
IC50 [2]: 1740 nM

Cc1ccc(Nc2ncc3c(n2)N(C)C(=O)N(c2cc(NC(=O)c4ccc5c(c4)N(CC(C)C)C(=O)[C@H](CC(C)C)N=C5c4ccccc4)ccc2C)C3)cn1 [11j, (S)-1,3-diisobutyl-N-(4-methyl-3-(1-methyl-7-((6-methylpyridin-3-yl)amino)-2-oxo-1,4-dihydropyrimido[4,5-d]pyrimidin-3(2H)-yl)phenyl)-2-oxo-5-phenyl-2,3-dihydro-1H-benzo[e][1,4]diazepine-8-carboxamide]
IC50 [1]: 132 nM
IC50 [2]: 461 nM

Cc1ccc(Nc2ncc3c(n2)N(C)C(=O)N(c2cc(C(=O)N[C@H](C(=O)N4CCC[C@H]4C(=O)NC(C)(C)C(=O)NCC(=O)N(C)C)C(C)C)ccc2C)C3)cn1 [7u, (S)-N-(1-((2-(dimethylamino)-2-oxoethyl)amino)-2-methyl-1-oxopropan-2-yl)-1-((4-methyl-3-(1-methyl-7-((6-methylpyridin-3-yl)amino)-2-oxo-1,4-dihydropyrimido[4,5-d]pyrimidin-3(2H)-yl)benzoyl)-L-valyl)pyrrolidine-2-carboxamide] (X1-VP[Aib]G-NMe2)
IC50 [1]: 174 nM
IC50 [2]: 1140 nM

Cc1ccc(Nc2ncc3c(n2)N(C)C(=O)N(c2cc(C(=O)N[C@H](C(=O)N4CCCC[C@H]4C(=O)NC(C)(C)C(=O)N[C@@H](CC(C)C)C(=O)N(C)C)C(C)C)ccc2C)C3)cn1 [7j, (S)-N-(1-(((S)-1-(dimethylamino)-4-methyl-1-oxopentan-2-yl)amino)-2-methyl-1-oxopropan-2-yl)-1-((4-methyl-3-(1-methyl-7-((6-methylpyridin-3-yl)amino)-2-oxo-1,4-dihydropyrimido[4,5-d]pyrimidin-3(2H)-yl)benzoyl)-L-valyl)piperidine-2-carboxamide] (X1-V[Pip][Aib]L-NMe2)
IC50 [1]: 18 nM
IC50 [2]: 586 nM

Cc1ccc(Nc2ncc3c(n2)N(C)C(=O)N(c2cc(C(=O)N[C@H](C(=O)N4CCC[C@H]4C(=O)NC(C)(C)C(=O)N[C@@H](CC(C)C)C(=O)N(C)C)C4CCCCC4)ccc2C)C3)cn1 [7s, (S)-1-((S)-2-cyclohexyl-2-(4-methyl-3-(1-methyl-7-((6-methylpyridin-3-yl)amino)-2-oxo-1,4-dihydropyrimido[4,5-d]pyrimidin-3(2H)-yl)benzamido)acetyl)-N-(1-(((S)-1-(dimethylamino)-4-methyl-1-oxopentan-2-yl)amino)-2-methyl-1-oxopropan-2-yl)pyrrolidine-2-carboxamide] (X1-[Chg]P[Aib]L-NMe2)
IC50 [1]: 36 nM
selectivity for Lck over c-Src [1]: > 10 fold
IC50 [2]: 435 nM

CC1=N[C@@H](Cc2ccccc2)C(=O)Nc2cc(C(=O)Nc3ccc(C)c(N4Cc5cnc(Nc6ccc(C)nc6)nc5N(C)C4=O)c3)ccc21 [11k, (S)-3-benzyl-5-methyl-N-(4-methyl-3-(1-methyl-7-((6-methylpyridin-3-yl)amino)-2-oxo-1,4-dihydropyrimido[4,5-d]pyrimidin-3(2H)-yl)phenyl)-2-oxo-2,3-dihydro-1H-benzo[e][1,4]diazepine-8-carboxamide]
IC50 [1]: 3.57 nM
IC50 [2]: 27.1 nM

CCC[C@H](NC(=O)c1ccc(C)c(N2Cc3cnc(Nc4ccc(C)nc4)nc3N(C)C2=O)c1)C(=O)N1CCC[C@H]1C(=O)NC(C)(C)C(=O)N[C@@H](CC(C)C)C(=O)N(C)C [7t, (S)-N-(1-(((S)-1-(dimethylamino)-4-methyl-1-oxopentan-2-yl)amino)-2-methyl-1-oxopropan-2-yl)-1-((S)-2-(4-methyl-3-(1-methyl-7-((6-methylpyridin-3-yl)amino)-2-oxo-1,4-dihydropyrimido[4,5-d]pyrimidin-3(2H)-yl)benzamido)pentanoyl)pyrrolidine-2-carboxamide] (X1-[Nva]P[Aib]L-NMe2)
IC50 [1]: 70.8 nM
IC50 [2]: 477 nM

Cc1ccc(Nc2ncc3c(n2)N(C)C(=O)N(c2cc(C(=O)N[C@H](C(=O)N4CCC[C@H]4C(=O)NC4(C(=O)N[C@@H](CC(C)C)C(=O)N(C)C)CC4)C(C)C)ccc2C)C3)cn1 [7d, (S)-N-(1-(((S)-1-(dimethylamino)-4-methyl-1-oxopentan-2-yl)carbamoyl)cyclopropyl)-1-((4-methyl-3-(1-methyl-7-((6-methylpyridin-3-yl)amino)-2-oxo-1,4-dihydropyrimido[4,5-d]pyrimidin-3(2H)-yl)benzoyl)-L-valyl)pyrrolidine-2-carboxamide] (X1-VP[Ac3c]L-NMe2)
IC50 [1]: 49 nM
IC50 [2]: 555 nM

CC1=N[C@H](Cc2ccccc2)C(=O)Nc2cc(C(=O)Nc3ccc(C)c(N4Cc5cnc(Nc6ccc(C)nc6)nc5N(C)C4=O)c3)ccc21 [11l, (R)-3-benzyl-5-methyl-N-(4-methyl-3-(1-methyl-7-((6-methylpyridin-3-yl)amino)-2-oxo-1,4-dihydropyrimido[4,5-d]pyrimidin-3(2H)-yl)phenyl)-2-oxo-2,3-dihydro-1H-benzo[e][1,4]diazepine-8-carboxamide]
IC50 [1]: 4.63 nM
IC50 [2]: 19.6 nM

Cc1ccc(Nc2ncc3c(n2)N(C)C(=O)N(c2cc(C(=O)N[C@H](C(=O)N4CC[C@H]4C(=O)NC(C)(C)C(=O)N[C@@H](CC(C)C)C(=O)N(C)C)C(C)C)ccc2C)C3)cn1 [7k, (S)-N-(1-(((S)-1-(dimethylamino)-4-methyl-1-oxopentan-2-yl)amino)-2-methyl-1-oxopropan-2-yl)-1-((4-methyl-3-(1-methyl-7-((6-methylpyridin-3-yl)amino)-2-oxo-1,4-dihydropyrimido[4,5-d]pyrimidin-3(2H)-yl)benzoyl)-L-valyl)azetidine-2-carboxamide] (X1-V[Aze][Aib]L-NMe2)
IC50 [1]: 302 nM
decrease of Lck/c-Src selectivity compared to 7a [1]: > 10 fold
IC50 [2]: 921 nM

Cc1ccc(Nc2ncc3c(n2)N(C)C(=O)N(c2cc(NC(=O)c4ccc5c(c4)N(CC(=O)NCc4ccccc4)C(=O)[C@H](CC(C)C)N=C5c4ccccc4)ccc2C)C3)cn1 [11o, (S)-1-(2-(benzylamino)-2-oxoethyl)-3-isobutyl-N-(4-methyl-3-(1-methyl-7-((6-methylpyridin-3-yl)amino)-2-oxo-1,4-dihydropyrimido[4,5-d]pyrimidin-3(2H)-yl)phenyl)-2-oxo-5-phenyl-2,3-dihydro-1H-benzo[e][1,4]diazepine-8-carboxamide]
IC50 [1]: 27.8 nM
IC50 [2]: 87.5 nM

Cc1ccc(Nc2ncc3c(n2)N(C)C(=O)N(c2cc(C(=O)N[C@@H](C)C(=O)N4CCC[C@H]4C(=O)NC(C)(C)C(=O)N[C@H](C(=O)N(C)C)C(C)C)ccc2C)C3)cn1 [7m, (S)-N-(1-(((S)-1-(dimethylamino)-3-methyl-1-oxobutan-2-yl)amino)-2-methyl-1-oxopropan-2-yl)-1-((4-methyl-3-(1-methyl-7-((6-methylpyridin-3-yl)amino)-2-oxo-1,4-dihydropyrimido[4,5-d]pyrimidin-3(2H)-yl)benzoyl)-L-alanyl)pyrrolidine-2-carboxamide] (X1-AP[Aib]V-NMe2)
IC50 [1]: 379 nM
IC50 [2]: 3970 nM

Cc1ccc(Nc2ncc3c(n2)N(C)C(=O)N(c2cc(C(=O)N[C@H](C(=O)N4CCC[C@H]4C(=O)NC(C)(C)C(=O)N[C@H](C(=O)N(C)C)C(C)C)C(C)C)ccc2C)C3)cn1 [7n, (S)-N-(1-(((S)-1-(dimethylamino)-3-methyl-1-oxobutan-2-yl)amino)-2-methyl-1-oxopropan-2-yl)-1-((4-methyl-3-(1-methyl-7-((6-methylpyridin-3-yl)amino)-2-oxo-1,4-dihydropyrimido[4,5-d]pyrimidin-3(2H)-yl)benzoyl)-L-valyl)pyrrolidine-2-carboxamide] (X1-VP[Aib]V-NMe2)
IC50 [1]: 727 nM
IC50 [2]: 3140 nM

Cc1ccc(Nc2ncc3c(n2)N(C)C(=O)N(c2cc(C(=O)N[C@@H](Cc4ccccc4)C(=O)N4CCC[C@@H]4C(=O)N[C@H](C(=O)N[C@H](C)c4ccccc4)C(C)C)ccc2C)C3)cn1 [7w, (R)-N-((S)-3-methyl-1-oxo-1-(((R)-1-phenylethyl)amino)butan-2-yl)-1-((4-methyl-3-(1-methyl-7-((6-methylpyridin-3-yl)amino)-2-oxo-1,4-dihydropyrimido[4,5-d]pyrimidin-3(2H)-yl)benzoyl)-L-phenylalanyl)pyrrolidine-2-carboxamide]
IC50 [1]: 129 nM
IC50 [2]: 585 nM
